Like-named read-outs stand apart in the source and are kept apart here.

In one data set the test system is HIV-1. Put plainly: microbe, parasite or virus in culture. As to conditions: for EC50: read-out: Anti-HIV-1 EC50. The format is cell-based.
Data set [1] concerns four different cell lines.
A further data set relates to HCV replicon. Put plainly: microbe, parasite or virus in culture. The conditions noted are these: for EC50: read-out: Anti-HCV EC50; for EC90: read-out: Anti-HCV EC90. The format is cell-based.
A further data set concerns wild-type HBV. The format is cell-based. The conditions noted are these: in vitro.
The next data set deals with HepG2 cells. As to the kind of experiment: Toxicity to HepG2 cells. The class given is cell-based. The conditions noted are these: data not shown.
A short description of data set [2]: in vitro. As to conditions: human.
The nature of data set [3]: in vitro.
Data set [4] is described as follows: in vitro. As to conditions: human. This is another data set of the same source.
The subject of a further data set is Huh-7 cells. Put plainly: Cellular pharmacology: intracellular metabolites in Huh-7 cells by LC-MS/MS. The format is in vitro ADME. As to conditions: 50 μM, 37°C, 4 h.
[5] abbreviates: Human immunodeficiency virus 1, read-out: Anti-HIV-1 EC90.

For orientation: EC50 means the concentration at which the effect is half-maximal. Usually EC90 stands for the concentration needed for an effect of 90%. For orientation: IC50 means the concentration that inhibits the measured activity by half. A lower IC50 goes with greater potency in that assay. For “4-amino-7-iodo-1-(2-deoxy-2-fluoro-2-C-methyl-α-D-ribofuranosyl)-1H-pyrrolo[2,3-d]pyrimidine [Compound 4e]”, the EC50 is above 100 µM with HIV-1 and 7 µM with HCV replicon (HCV replicon, 96 h). Also, the EC90 in the data set with HIV-1 (read-out: Anti-HIV-1 EC90) was above 100 µM; in the data set with HCV replicon (HCV replicon, 96 h) it was 24.9 µM. For the same compound, in data set [1], the “toxicity (in words)” value is “toxicity”. The “anti-HCV activity (in words)” value in the data set with HCV replicon (HCV replicon) is on record as “modest anti-HCV activity”. The IC50 with CEM cells is 40.9 µM; in the data set on VERO cells, 65.9 µM; with PBM cells, above 100 µM. Besides, the “anti-HBV activity (in words)” value in the data set with wild-type HBV was “weak anti-HBV activity”. In addition, the “toxicity to HepG2 cells (in words)” value with HepG2 cells is given as “toxicity to HepG2 cells”.

Take “4-amino-7-iodo-1-(2-deoxy-2-fluoro-2-C-methyl-β-D-ribofuranosyl)-1H-pyrrolo[2,3-d]pyrimidine [Compound 5e]”: the concentration for a half-maximal effect (EC50) in the data set on HIV-1 was found to be 94 µM; with HCV replicon (HCV replicon, 96 h) it was 1.1 µM. Further, the EC90 with HIV-1 (read-out: Anti-HIV-1 EC90) is above 100 µM; in the data set on HCV replicon (HCV replicon, 96 h), above 33 µM. Also, the “toxicity (in words)” value in [1] is “toxicity”. The “anti-HCV activity (in words)” value in the data set on HCV replicon (HCV replicon) was “modest anti-HCV activity”. Further, the values for the IC50 in the data set with CEM cells, in the data set with VERO cells and with PBM cells were 24 µM, 21.4 µM and 53.2 µM, respectively.

In the case of `C[C@@]1(F)[C@H](O)[C@@H](CO)O[C@@H]1n1ccc2c(N)ncnc21` [Compound 4a], the IC50 in the data set “in vitro [2]” and in “in vitro [3]” was above 100 µM each time. The EC90 in the data set with HIV-1 (setting [5]) was above 100 µM; in the data set on HCV replicon (Hepatitis C virus, Huh-7, 96 h), above 10 µM. Moreover, the CC50 at 96 h in “in vitro [4]” is above 10 µM.

Consider `C[C@@]1(F)[C@H](O)[C@@H](CO)O[C@@H]1n1cc(F)c2c(N)ncnc21` [Compound 4b], for which the EC90 in the data set on HIV-1 (setting [5]) is above 100 µM; in the data set on HCV replicon (Hepatitis C virus, Huh-7, 96 h), above 10 µM. Moreover, the half-inhibitory concentration (IC50) in the data set “in vitro [3]” was above 100 µM.

As for `C[C@@]1(F)[C@H](O)[C@@H](CO)O[C@@H]1n1cc(Cl)c2c(N)ncnc21` [Compound 4c], the EC90 with HCV replicon (Hepatitis C virus, Huh-7, 96 h) is above 10 µM. In “in vitro [4]”, this compound registered a CC50 at 96 h above 10 µM.

Take `C[C@@]1(F)[C@H](O)[C@@H](CO)O[C@@H]1n1cc(Br)c2c(N)ncnc21` [Compound 4d]: the EC90 is above 100 µM with HIV-1 (setting [5]) and above 10 µM with HCV replicon (Hepatitis C virus, Huh-7, 96 h).

Turning to `C[C@@]1(F)[C@H](O)[C@@H](CO)O[C@@H]1n1ccc2c(N)nc(N)nc21` [Compound 4f], the IC50 in “in vitro [2]” and in “in vitro [3]” was above 100 µM throughout. Also, the EC90 with HCV replicon (Hepatitis C virus, Huh-7, 96 h) was above 10 µM. The CC50 at 96 h in “in vitro [4]” was above 10 µM.

For `C[C@@]1(F)[C@H](O)[C@@H](CO)O[C@@H]1n1cc(I)c2c(N)nc(N)nc21` [Compound 4g], the concentration for an effect of 90% (EC90) in the data set with HCV replicon (Hepatitis C virus, Huh-7, 96 h) is above 10 µM. The CC50 at 96 h in the data set “in vitro [4]” is above 10 µM.

For `CNc1ncnc2c1c(F)cn2[C@H]1O[C@H](CO)[C@@H](O)[C@@]1(C)F` [Compound 4h], the concentration for half-maximal inhibition (IC50) in the data set “in vitro [2]” and in “in vitro [3]” was above 100 µM each time. Further, the EC90 in the data set on HIV-1 (setting [5]) was above 100 µM; in the data set on HCV replicon (Hepatitis C virus, Huh-7, 96 h) it was above 10 µM. This compound showed a CC50 at 96 h in “in vitro [4]” above 10 µM.

Turning to `COc1ncnc2c1ccn2[C@H]1O[C@H](CO)[C@@H](O)[C@@]1(C)F` [Compound 4i], the IC50 in the data set “in vitro [2]” and in “in vitro [3]” was above 100 µM in each case. Besides, in the data set with HCV replicon (Hepatitis C virus, Huh-7, 96 h), the concentration for an effect of 90% (EC90) is above 10 µM.

On to `C[C@@]1(F)[C@H](O)[C@@H](CO)O[C@H]1n1ccc2c(N)ncnc21` [Compound 5a], for which the 50% inhibitory concentration (IC50) in “in vitro [2]” and in the data set “in vitro [3]” was above 100 µM in each case.

Regarding `C[C@@]1(F)[C@H](O)[C@@H](CO)O[C@H]1n1cc(F)c2c(N)ncnc21` [Compound 5b], the IC50 in “in vitro [3]” is above 100 µM. The CC50 at 96 h in the data set “in vitro [4]” was above 10 µM.

Turning to `C[C@@]1(F)[C@H](O)[C@@H](CO)O[C@H]1n1cc(Cl)c2c(N)ncnc21` [Compound 5c], the 90% effect concentration (EC90) in the data set on HIV-1 (setting [5]) is above 100 µM.

Turning to `C[C@@]1(F)[C@H](O)[C@@H](CO)O[C@H]1n1ccc2c(N)nc(N)nc21` [Compound 5f], the IC50 in the data set “in vitro [2]” is above 100 µM. The concentration for an effect of 90% (EC90) with HIV-1 (setting [5]) was above 100 µM. In “in vitro [3]”, the IC50 was above 100 µM. Moreover, in the data set on Huh-7 cells, the “deamination to 7-deazaguanosine nucleoside or nucleoside phosphate” value is given as “no deamination had occurred” and the “nucleoside triphosphate found intracellularly” value was “only a trace amount of nucleoside triphosphate was found”.

Regarding `C[C@@]1(F)[C@H](O)[C@@H](CO)O[C@H]1n1cc(I)c2c(N)nc(N)nc21` [Compound 5g], the EC90 in the data set on HIV-1 (setting [5]) was above 100 µM.

`CNc1ncnc2c1c(F)cn2[C@@H]1O[C@H](CO)[C@@H](O)[C@@]1(C)F` [Compound 5h]: the half-maximal inhibitory concentration (IC50) in the data set “in vitro [2]” and in the data set “in vitro [3]” was above 100 µM throughout.

As to `COc1ncnc2c1ccn2[C@@H]1O[C@H](CO)[C@@H](O)[C@@]1(C)F` [Compound 5i], the IC50 in the data set “in vitro [2]” and in “in vitro [3]” was above 100 µM throughout. The CC50 at 96 h in the data set “in vitro [4]” was above 10 µM.

In the case of `C=Cc1cn([C@H]2O[C@H](CO)[C@@H](O)[C@@]2(C)F)c2ncnc(N)c12` [Compound 6], in the data set on HIV-1, the “anti-HIV-1 activity (in words)” value is “anti-HIV-1 activity”. For the same compound, in data set [1], the “toxicity (in words)” value is “strong toxicity across all cell lines”. Also, in the data set on HCV replicon (HCV replicon), the “anti-HCV activity (in words)” value is “moderate anti-HCV activity”.

As to `C=Cc1cn([C@@H]2O[C@H](CO)[C@@H](O)[C@@]2(C)F)c2ncnc(N)c12` [Compound 7], in the data set with HIV-1, the “anti-HIV-1 activity (in words)” value is “anti-HIV-1 activity”. For the same compound, the “toxicity (in words)” value in data set [1] was “exhibited toxicity in the ribosomal RNA assay and in three independent cell lines”.

Consider `CCc1cn([C@H]2O[C@H](CO)[C@@H](O)[C@@]2(C)F)c2ncnc(N)c12` [Compound 8], for which the IC50 in the data set “in vitro [2]” was above 100 µM. In addition, in the data set with HIV-1 (setting [5]), the concentration for an effect of 90% (EC90) is above 100 µM.

`CCc1cn([C@@H]2O[C@H](CO)[C@@H](O)[C@@]2(C)F)c2ncnc(N)c12` [Compound 9] yielded an IC50 in the data set “in vitro [2]” above 100 µM. In the data set on HCV replicon (Hepatitis C virus, Huh-7, 96 h), the concentration for an effect of 90% (EC90) was above 10 µM. The CC50 at 96 h in “in vitro [4]” is above 10 µM.

For the compound `COC(=O)/C=C/c1cn([C@H]2O[C@H](CO)[C@@H](O)[C@@]2(C)F)c2ncnc(N)c12` [Compound 10], the half-inhibitory concentration (IC50) in “in vitro [2]” and in “in vitro [3]” was above 100 µM in each case. Further, the “anti-HIV-1 activity (in words)” value in the data set on HIV-1 is reported as “strong anti-HIV-1 activity”. For the same compound, the “concentration up to which no cytotoxicity was observed” value in data set [1] (four different cell lines) is above 100 µM. Besides, the EC90 in the data set with HCV replicon (Hepatitis C virus, Huh-7, 96 h) was above 10 µM. Besides, the “anti-HBV activity (in words)” value with wild-type HBV is on record as “no anti-HBV activity”.

Regarding `COC(=O)/C=C/c1cn([C@@H]2O[C@H](CO)[C@@H](O)[C@@]2(C)F)c2ncnc(N)c12` [Compound 11], the IC50 in the data set “in vitro [2]” and in the data set “in vitro [3]” was above 100 µM each time. In “in vitro [4]”, this compound gave a CC50 at 96 h above 10 µM.

In the case of `C#Cc1cn([C@H]2O[C@H](CO)[C@@H](O)[C@@]2(C)F)c2ncnc(N)c12` [Compound 12], the IC50 in “in vitro [2]” was above 100 µM. The 90% effect concentration (EC90) with HIV-1 (setting [5]) was above 100 µM.

In the data set “in vitro [2]”, `C#Cc1cn([C@@H]2O[C@H](CO)[C@@H](O)[C@@]2(C)F)c2ncnc(N)c12` [Compound 13] displayed an IC50 above 100 µM. In the data set on HCV replicon (Hepatitis C virus, Huh-7, 96 h), the EC90 was above 10 µM. In the data set “in vitro [4]”, this compound came in with a CC50 at 96 h above 10 µM.

For the compound `C#Cc1cn([C@H]2O[C@H](CO)[C@@H](O)[C@@]2(C)F)c2nc(N)nc(N)c12` [Compound 14], in the data set with HIV-1, the “anti-HIV-1 activity (in words)” value is recorded as “anti-HIV-1 activity”. In the data set on wild-type HBV, the “anti-HBV activity (in words)” value is “no anti-HBV activity”.

With `C#Cc1cn([C@@H]2O[C@H](CO)[C@@H](O)[C@@]2(C)F)c2nc(N)nc(N)c12` [Compound 15], the 90% effect concentration (EC90) with HCV replicon (Hepatitis C virus, Huh-7, 96 h) was above 10 µM. Further, the CC50 at 96 h in the data set “in vitro [4]” is above 10 µM.

For the compound `C[C@@]1(F)[C@H](O)[C@@H](CO)O[C@@H]1n1cc(C#Cc2ccccc2)c2c(N)ncnc21` [Compound 16], in the data set on HIV-1, the “anti-HIV-1 activity (in words)” value is recorded as “anti-HIV-1 activity”. Further, the “anti-HBV activity (in words)” value in the data set with wild-type HBV is “no anti-HBV activity”.

`C[C@@]1(F)[C@H](O)[C@@H](CO)O[C@H]1n1cc(C#Cc2ccccc2)c2c(N)ncnc21` [Compound 17]: the “anti-HIV-1 activity (in words)” value in the data set on HIV-1 is “anti-HIV-1 activity”. For the same compound, in the data set with HCV replicon (Hepatitis C virus, Huh-7, 96 h), the 90% effect concentration (EC90) is above 10 µM. For the same compound, the “anti-HBV activity (in words)” value with wild-type HBV is reported as “weak anti-HBV activity”. Further, the “toxicity to HepG2 cells (in words)” value in the data set with HepG2 cells is “toxicity to HepG2 cells”.

With `CCOC(=O)[C@H](C)NP(=O)(OC[C@H]1O[C@@H](n2ccc3c(N)nc(N)nc32)[C@](C)(F)[C@@H]1O)Oc1ccccc1` (some centres unmarked) [Compound 20], in the data set on Huh-7 cells, the “deamination to 7-deazaguanosine nucleoside or nucleoside phosphate” value is given as “no deamination had occurred” and the “nucleoside triphosphate found intracellularly” value was “only a trace amount of nucleoside triphosphate was found”.

These data come from article PMC3242417 (Bioorganic & medicinal chemistry letters, 2011).
